From patent US6919298B2, “Enhanced herbicide composition” (Valent Biosciences Corporation, priority 2002, dated 2005)
“And” between values parts separate entries of the source, which are not always exact repeats. Identical values can stand only once.

Tests used:
[1] = test system: tobacco; parameters: species or system Nicotiana tabacum (tobacco); conditions: in vivo
Method: (§1) COC was added to all spray solutions at a rate of 0.25% (v/v). For all treatments containing both an herbicide and an SAR inducer, these materials were mixed and applied in a single spray solution (commonly known as a tank mix). After spraying, plants were moved to the greenhouse and arranged in a randomized complete block experimental design. Plants were evaluated for phytotoxicity/herbicidal effects after spraying by assessing damage according to percent leaf area affected.
All the data were subject to an analysis of variance, and the mean separations were determined with Duncan's new multiple range test at α=0.05. The present invention may be illustrated by the following representative examples:
In this experiment, the plants were treated and kept in the dark for 48 hours from the first spray treatment to delay the light-dependent effects of paraquat.

[2] = test system: tobacco; assay: Spray (tank mix) phytotoxicity/herbicidal effect on greenhouse tobacco; type: in vivo, Nicotiana tabacum (tobacco); conditions: for Phytotoxicity at 4d post-spraying: Percent Leaf Area Affected / Phytotoxicity at 6d post-spraying: Percent Leaf Area Affected: paraquat 187 mg/l and/or Ethephon 1000 ul/l
Method: (§2) In all experiments, deionized ultra-pure water was used in preparing solutions. Spray solutions were used as soon as possible after mixing.
as §1
(§3) All the data were subject to an analysis of variance, and the mean separations were determined with Duncan's new multiple range test at α=0.05. The present invention may be illustrated by the following representative examples: […]

[3] = test system: lambsquarter (Chenopodium album); assay: Spray (tank mix) phytotoxicity/herbicidal effect on lambsquarter; type: in vivo
Method: as §2, §1, §3

[4] = test system: tobacco; parameters: species or system Nicotiana tabacum (tobacco); conditions: in vivo; remark: listed apart in the source
Method: as §1, §3

[5] = test system: giant foxtail; assay: Spray (tank mix) phytotoxicity/herbicidal effect on giant foxtail; type: in vivo; conditions: monocotyledonous plant species (giant foxtail, Table 2)
Method: as §2, §1, §3

[6] = tobacco, Actigard 187 mg/l, with or without paraquat 150 mg/l, COC 0.25%
[7] = tobacco, Actigard 935 mg/l, with or without paraquat 150 mg/l, COC 0.25%
[8] = tobacco, added to the paraquat spray solution
[9] = lambsquarter, Actigard 187 mg/l, with or without paraquat 150 mg/l, COC 0.25%
[10] = lambsquarter, Actigard 935 mg/l, with or without paraquat 150 mg/l, COC 0.25%

C[n+]1ccc(-c2cc[n+](C)cc2)cc1 [Paraquat, 1,1′-dimethyl-4,4′-bipyridinium ion]
Phytotoxicity after 3 days in the light (5 days after initial spray) [1]: 5.0 D
Phytotoxicity after 12 days in the light (14 days after initial spray) [1]: 5.0 D
Phytotoxicity at 1d ([2]; in vivo): 4.1 E
Phytotoxicity at 1d: Percent Leaf Area Affected ([2]; in vivo): 75 E Percent
Phytotoxicity at 2d: Percent Leaf Area Affected ([2]; in vivo): 61.25 E Percent and 65 E Percent
Phytotoxicity at 4d: Percent Leaf Area Affected ([2]; in vivo): 62.5 F Percent
Phytotoxicity at 5d: Percent Leaf Area Affected ([2]; in vivo): 83.75 E Percent
Phytotoxicity at 7d: Percent Leaf Area Affected ([2]; in vivo): 50 D Percent and 96.5 D Percent
Phytotoxicity at 8d ([2]; in vivo): 5.0 C
Phytotoxicity at 10d: Percent Leaf Area Affected ([2]; in vivo): 99 F Percent
Phytotoxicity at 11d ([2]; in vivo): 5.0 E
Phytotoxicity at 12d ([2]; in vivo): 4.2 C
Phytotoxicity at 4d post-spraying: Percent Leaf Area Affected ([2]; tobacco, COC 0.25%): 95 C Percent
Phytotoxicity at 6d post-spraying: Percent Leaf Area Affected ([2]; tobacco, COC 0.25%): 97.5 C Percent
Phytotoxicity at 2d ([3]; in vivo): 3.9 C
Phytotoxicity at 2d: Percent Leaf Area Affected ([3]; in vivo): 72.5 C Percent
Phytotoxicity at 4d ([3]; in vivo): 3.9 BC
Phytotoxicity at 4d: Percent Leaf Area Affected ([3]; in vivo): 72.5 BC Percent
Phytotoxicity at 7d ([3]; in vivo): 3.9 BC
Phytotoxicity at 7d: Percent Leaf Area Affected ([3]; in vivo): 72.5 BC Percent
Phytotoxicity at 1d post-spraying [4]: 3.7 D
Phytotoxicity at 4d post-spraying [4]: 3.8 D
Phytotoxicity at 6d post-spraying [4]: 3.4 E

CSC(=O)c1cccc2nnsc12 [Actigard, Benzo(1,2,3)thiadiazole-7-carbothioic acid-S-methyl ester]
Phytotoxicity at 2d: Percent Leaf Area Affected [2, 6]: 0 A Percent
Phytotoxicity at 4d: Percent Leaf Area Affected [2, 6]: 0 A Percent
Phytotoxicity at 7d: Percent Leaf Area Affected [2, 6]: 0 A Percent
Phytotoxicity at 2d: Percent Leaf Area Affected [2, 7]: 1 A Percent
Phytotoxicity at 4d: Percent Leaf Area Affected [2, 7]: 0 A Percent
Phytotoxicity at 7d: Percent Leaf Area Affected [2, 7]: 0 A Percent
Safening from paraquat herbicide damage (in words) [2, 8]: safened the plants from paraquat herbicide damage
Phytotoxicity at 2d: Percent Leaf Area Affected [3, 9]: 0 A Percent
Phytotoxicity at 4d: Percent Leaf Area Affected [3, 9]: 0 A Percent
Phytotoxicity at 7d: Percent Leaf Area Affected [3, 9]: 0 A Percent
Phytotoxicity at 2d: Percent Leaf Area Affected [3, 10]: 0 A Percent
Phytotoxicity at 4d: Percent Leaf Area Affected [3, 10]: 0 A Percent
Phytotoxicity at 7d: Percent Leaf Area Affected [3, 10]: 0 A Percent
Protection from paraquat damage (in words) ([3]; lambsquarter, tank mixed or applied with paraquat): did show safening

O=C([O-])c1ccccc1O.[Na+] [NaSA, sodium salicylate]
Safening from paraquat (in words) [1]: resulted in safening
Safening from paraquat damage (in words) [5]: safen plants from paraquat damage
Safening from paraquat herbicide damage (in words) ([2]; in vivo): safened the plants from paraquat herbicide damage
Safening against diquat (in words) ([2]; tobacco, Table 3): able to safen tobacco against the herbicide diquat
Protection from paraquat damage (in words) ([3]; in vivo): limited or no protection from paraquat damage
Protection from paraquat damage (in words) [4]: significant protection from paraquat damage

O=C(O)c1cc(F)ccc1O [5-FSA, 5-fluorosalicylate]
Phytotoxicity at 6d ([2]; in vivo): 2.3 B
Phytotoxicity at 8d ([2]; in vivo): 2.8 B
Phytotoxicity at 11d ([2]; in vivo): 2.0 B
Safening from paraquat herbicide damage (in words) [2, 8]: able to safen tobacco from paraquat

O=P(O)(O)CCCl [Ethephon, (2-choroethyl) phosphonic acid]
Safening from paraquat with pre-treatment with 1-MCP (in words) ([2]; tobacco, 1-MCP, an inhibitor of ethylene perception): observed regardless of pre-treatment with 1-MCP
Safening from paraquat herbicide damage (in words) [2, 8]: safened the plants from paraquat herbicide damage
Phytotoxicity at 4d post-spraying: Percent Leaf Area Affected ([2]; tobacco, COC 0.25%): 0 A Percent
Phytotoxicity at 6d post-spraying: Percent Leaf Area Affected ([2]; tobacco, COC 0.25%): 0 A Percent

c1cc[n+]2c(c1)-c1cccc[n+]1CC2 [Diquat, 1,1′-ethylene-2,2′-bipyridyidiylium ion]
Phytotoxicity at 1d ([2]; in vivo): 3.3. D
Phytotoxicity at 4d ([2]; in vivo): 4.3 C
Phytotoxicity at 6d ([2]; in vivo): 4.3 C
Phytotoxicity at 12d ([2]; in vivo): 3.9 C
